This note sets out measurements from US20240376073A1 (Hoffmann-La Roche Inc., priority 2021, published 2024).

Counter-ions that a name gives are not always drawn.

The subject of one assay is Acinetobacter baumannii ATCC17961. As to the kind of experiment: Antimicrobial susceptibility testing: 90% growth inhibitory concentration (IC90) determination. The class given is cell-based. To be noted: Acinetobacter baumannii ATCC17961; Iso-Sensitest broth; growth by OD 600 nm over 16 h; 35±2° C.; read-out: ATCC 17961 IC90. On the procedure:
The in vitro antimicrobial activity of the compounds was determined according to the following procedure:
The assay used a 10-points Iso-Sensitest broth medium to measure quantitatively the in vitro activity of the compounds against Acinetobacter baumannii ATCC17961.
Stock compounds in DMSO were serially twofold diluted (e.g. range from 50 to 0.097 μM final concentration) in 384 wells microtiter plates and inoculated with 49 μl the bacterial suspension in Iso-Sensitest medium to have a final cell concentration of ˜5×10^(5) CFU/ml in a final volume/well of 50 ul/well. Microtiter plates were incubated at 35±2° C.
Bacterial cell growth was determined with the measurement of optical density at λ=600 nm each 20 minutes over a time course of 16 h. Growth inhibition was calculated during the logarithmic growth of the bacterial cells with determination of the concentration inhibiting 50% (IC50) and 90% (IC90) of the growth.
Table 1 provides the […] growth inhibitory concentrations (IC90) in micromoles per liter of the compounds of present invention obtained against the strain Acinetobacter baumannii ATCC17961.
Consider `COc1ccc(-c2cnc(C(=O)Nc3ccc(C(=O)NCc4c[n+](C)c(NC(=O)C[N+](C)(C)C)s4)c(Cl)c3)n2C)c(F)c1F` [Example C23, [2-[[5-[[[2-chloro-4-[[5-(2,3-difluoro-4-methoxy-phenyl)-1-methyl-imidazole-2-carbonyl]amino]benzoyl]amino]methyl]-3-methyl-thiazol-3-ium-2-yl]amino]-2-oxo-ethyl]-trimethyl-ammonium;formate], for which the IC90 (commonly the concentration needed for an effect of 90%) amounted to 76 nM. As to `CCc1cc(NC(=O)c2ncc(-c3ccc(OC(F)F)c(F)c3F)n2C)ccc1C(=O)N1CCN(C(=O)C2CC[N+](C)(CC3CCNC3)CC2)CC1` (stereo not shown) [Example C17, 5-[4-(difluoro-methoxy)-2,3-difluoro-phenyl]-N-[3-ethyl-4-[4-[1-methyl-1-(pyr-rolidin-3-ylmeth-yl)piperidin-1-ium-4-carbonyl]-piperazine-1-carbonyl]phenyl]-1-methyl-imid-azole-2-carbox-amide; 2,2,2-trifluoroacetate; 2,2,2-trifluoro-acetic acid], the IC90 amounted to 220 nM. Still for that read-out and setting: as for `Cn1c(-c2ccc(OC(F)F)c(F)c2F)cnc1C(=O)Nc1ccc(C(=O)N2CCN(C(=O)C3CC[N+](C)(CC4CNC4)CC3)CC2)c(Cl)c1` (stereo not shown) [Example C13, N-[4-[4-[1-(azet-idin-3-ylmeth-yl)-1-methyl-piper-idin-1-ium-4-carbonyl]piper-azine-1-carbon-yl]-3-chloro-phen-yl]-5-[4-(difluoro-methoxy)-2,3-difluoro-phenyl]-1-methyl-imid-azole-2-carbox-amide; 2,2,2-trifluoroacetate; 2,2,2-trifluoro-acetic acid], the figure is 73 nM; as for `COc1ccc(-c2cnc(C(=O)Nc3ccc(C(=O)NCc4cnc(NC(=O)[C@@H]5C[C@@H](O)C[N+]5(C)C)s4)c(Cl)c3)n2C)c(F)c1F` [Example A27, N-[3-chloro-4-[[2-[[(2S,4R)-4-hydroxy-1,1-dimethyl-pyrrolidin-1-ium-2-carbonyl]amino]thiazol-5-yl]methylcarbamoyl]phenyl]-5-(2,3-difluoro-4-methoxy-phenyl)-1-methyl-imidazole-2-carboxamide; formate], 56 nM; as for `Cn1c(-c2ccc(OCC#N)c(F)c2F)cnc1C(=O)Nc1ccc(C(=O)N2CCN(C(=O)C[N+](C)(C)CC(N)=O)CC2)c(Cl)c1` [Example B4, (2-amino-2-oxo-ethyl)-[2-[4-[2-chloro-4-[[5-[4-(cyanomethoxy)-2,3-difluoro-phenyl]-1-methyl-imidazole-2-carbonyl]amino]benzoyl]piperazin-1-yl]-2-oxo-ethyl]-dimethyl-ammonium; formate], 110 nM. Same read-out and setting: as for `COc1ccc(-c2cnc(C(=O)Nc3ccc(C(=O)N4CCN(C(=O)C5CC[N+](C)(C)CC5)CC4)c(Cl)c3)n2C)c(F)c1F` [Example B10, N-[3-chloro-4-[4-(1,1-dimethylpiperidin-1-ium-4-carbonyl)piperazine-1-carbonyl]phenyl]-5-(2,3-difluoro-4-methoxy-phenyl)-1-methyl-imidazole-2-carboxamide; formate], the figure is 75 nM; as for `COc1ccc(-c2cnc(C(=O)Nc3ccc(C(=O)NC4CN(C(=O)C[N+](C)(C)CC(N)=O)C4)c(Cl)c3)n2C)c(F)c1F` [Example B6, (2-amino-2-oxo-ethyl)-[2-[3-[[2-chloro-4-[[5-(2,3-difluoro-4-methoxy-phenyl)-1-methyl-imidazole-2-carbonyl]amino]benzoyl]aminoJazetidin-1-yl]-2-oxo-ethyl]-dimethyl-ammonium; formate], 290 nM; as for `Cn1c(-c2ccc(OCC#N)c(F)c2F)cnc1C(=O)Nc1ccc(C(=O)N2CCC(C(=O)N3CC([N+](C)(C)C)C3)CC2)c(Cl)c1` [Example B31, [1-[1-[2-chloro-4-[[5-[4-(cyanomethoxy)-2,3-difluoro-phenyl]-1-methyl-imidazole-2-carbonyl]amino]benzoyl]piperidine-4-carbonyl]azetidin-3-yl]-trimethyl-ammonium; formate], 250 nM. The same measure, in the same setting: the value for `COc1ccc(-c2cnc(C(=O)Nc3ccc(C(=O)N4CCN(C(=O)C[N+](C)(C)CC(N)=O)CC4)c(Cl)c3)n2C)c(F)c1F` [Example B7, (2-amino-2-oxo-ethyl)-[2-[4-[2-chloro-4-[[5-(2,3-difluoro-4-methoxy-phenyl)-1-methyl-imidazole-2-carbonyl]amino]benzoyl]piperazin-1-yl]-2-oxo-ethyl]-dimethyl-ammonium; formate] was 99 nM; that for `COc1ccc(-c2cnc(C(=O)Nc3ccc(C(=O)N4CCN(C(=O)C[N+]5(C)CCC(O)C5)CC4)c(Cl)c3)n2C)c(F)c1F` (stereo not shown) [Example C29, N-[3-chloro-4-[4-[2-(3-hydroxy-1-methyl-pyrrolidin-1-ium-1-yl)acet-yl]piperazine-1-carbonyl]phenyl]-5-(2,3-difluoro-4-methoxy-phenyl)-1-methyl-imid-azole-2-carbox-amide; formate] was 100 nM; that for `Cn1c(-c2ccc(OC(F)F)c(F)c2Cl)cnc1C(=O)Nc1ccc(C(=O)N2CCN(C(=O)[C@@H]3C[C@@H](O)C[N+]3(C)C)CC2)c(Cl)c1` [Example B53] was 91 nM.

On to `Cn1c(-c2ccc(OC(F)F)c(F)c2F)cnc1C(=O)Nc1ccc(C(=O)N2CCN(C(=O)CC3CC[N+](C)(CC4CCNC4)C3)CC2)c(Cl)c1` (stereo not shown) [Example C18, N-[3-chloro-4-[4-[2-[1-methyl-1-(pyrrolidin-3-yl-methyl)pyrrol-idin-1-ium-3-yl]-acetyl]piperazine-1-carbonyl]phen-yl]-5-[4-(difluoro-methoxy)-2,3-difluoro-phenyl]-1-methyl-imid-azole-2-carbox-amide; 2,2,2-trifluoroacetate; 2,2,2-trifluoro-acetic acid], for which the IC90 is 220 nM. Still for that read-out and setting: the value for `COc1ccc(-c2cnc(C(=O)Nc3ccc(C(=O)N4CCN(C(=O)C5CCN(C(=O)C[N+](C)(C)CC(N)=O)CC5)CC4)c(Cl)c3)n2C)c(F)c1F` [Example C7, (2-amino-2-oxo-ethyl)-[2-[4-[4-[2-chloro-4-[[5-(2,3-difluoro-4-methoxy-phenyl)-1-meth-yl-imidazole-2-carbonyl]amino]-benzoyl]piper-azine-1-carbon-yl]-1-piperidyl]-2-oxo-ethyl]-dimethyl-ammo-nium; formate] was 250 nM.

Still in this assay, the particulars now being: Acinetobacter baumannii, ATCC17961, 16 h, read-out: ATCC 17961 IC90, Acinetobacter baumannii ATCC17961; Iso-Sensitest broth; growth by OD 600 nm over 16 h; 35±2° C.
`COc1ccc(-c2cnc(C(=O)Nc3ccc(C(=O)N4CCN(C(=O)[C@@H]5C=CC[N+]5(C)C)CC4)c(Cl)c3)n2C)c(F)c1F` [Example B49, N-[3-chloro-4-[4-[(2S)-1,1-dimethyl-2,5-dihydropyrrol-1-ium-2-carbonyl]piperazine-1-carbonyl]phenyl]-5-(2,3-difluoro-4-methoxy-phenyl)-1-methyl-imidazole-2-carboxamide formate]: the IC90 came to 120 nM.

Regarding `COc1ccc(-c2cnc(C(=O)Nc3ccc(C(=O)N4CCN(C(=O)[C@@H]5C[C@H](O)CC[N+]5(C)C)CC4)c(Cl)c3)n2C)c(F)c1F` [Example B38, N-[3-chloro-4-[4-[(2S,4R)-4-hydroxy-1,1-dimethyl-piperidin-1-ium-2-carbonyl]piperazine-1-carbonyl]phenyl]-5-(2,3-difluoro-4-methoxy-phenyl)-1-methyl-imidazole-2-carboxamide; formate], the IC90 was 180 nM. With `COc1ccc(-c2cnc(C(=O)Nc3ccc(C(=O)N4CCN(C(=O)C5CC[N+](CC(=O)O)(CC6CNC6)CC5)CC4)c(Cl)c3)n2C)c(Cl)c1F` (stereo not shown) [Example C40, 2-[1-(azetidin-3-ylmethyl)-4-[4-[2-chloro-4-[[5-(2-chloro-3-fluoro-4-methoxy-phenyl)-1-methyl-imidazole-2-carbonyl]amino]benzoyl]piperazine-1-carbonyl]piperidin-1-ium-1-yl]acetic acid; formate], the IC90 was 540 nM. Turning to `COc1ccc(-c2cnc(C(=O)Nc3ccc(C(=O)N4CCN(C(=O)[C@@H]5C[C@@H](O)C[N+]5(C)C)CC4)c(Cl)c3)n2C)c(C(F)F)c1F` [Example B40, N-[3-chloro-4-[4-[(2S,4R)-4-hydroxy-1,1-dimethyl-pyrrolidin-1-ium-2-carbonyl]piperazine-1-carbonyl]phenyl]-5-[2-(difluoromethyl)-3-fluoro-4-methoxy-phenyl]-1-methyl-imidazole-2-carboxamide; formate], the IC90 is 260 nM.

As to `COc1ccc(-c2cnc(C(=O)Nc3ccc(C(=O)N4CCN(C(=O)[C@@H]5[C@@H](O)[C@@H](O)C[N+]5(C)C)CC4)c(Cl)c3)n2C)c(F)c1F` [Example B50, N-[3-chloro-4-[4-[(2S,3R,4S)-3,4-dihydroxy-1,1-dimethyl-pyrrolidin-1-ium-2-carbonyl]piperazine-1-carbonyl]phenyl]-5-(2,3-difluoro-4-methoxy-phenyl)-1-methyl-imidazole-2-carboxamide formate], the IC90 stood at 250 nM. On the same count and under the same terms, as for `COc1ccc(-c2cnc(C(=O)Nc3ccc(C(=O)NCc4cn(CCS(C)(=O)=O)[n+](C)c4)c(Cl)c3)n2C)c(F)c1F` [Example A24, N-[3-chloro-4-[[1-methyl-2-(2-methylsulfonylethyl)pyrazol-1-ium-4-yl]methylcarbamoyl]phenyl]-5-(2,3-difluoro-4-methoxy-phenyl)-1-methyl-imidazole-2-carboxamide; formate], the figure is 350 nM.
